Data: patent publication US10487068B2, “Pyridazine derivatives as RORc modulators” (Genentech, Inc., priority 2015, dated 2019)

target: T1, RORc ligand binding domain (Homo sapiens, UniProt P51449); assay: In Vitro RORc Ligand Binding Assay; settings: RORc IC50, radioligand 25-[3H]hydroxycholesterol 6 nM; 0.6 ug/mL RORc receptor; 3 h at 25° C.
T1 sequence (P51449 269-508 limits assumed): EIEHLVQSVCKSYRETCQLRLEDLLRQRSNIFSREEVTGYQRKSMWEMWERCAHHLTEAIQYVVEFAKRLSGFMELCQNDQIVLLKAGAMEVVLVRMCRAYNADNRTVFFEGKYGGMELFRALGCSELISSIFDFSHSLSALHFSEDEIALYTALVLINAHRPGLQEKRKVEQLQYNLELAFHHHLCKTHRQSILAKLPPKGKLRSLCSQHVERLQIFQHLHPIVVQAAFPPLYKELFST

Row | IC50 [µM] | SMILES
1 | 0.021 | CC1(C)[C@H]2CC[C@]1(c1cncc(-c3n[nH]c(=O)o3)n1)c1nnc(-c3c(F)cccc3F)cc12 [Example 148, 5-(6-((5R,8S)-3-(2,6-difluorophenyl)-9,9-dimethyl-5,6,7,8-tetrahydro-5,8-methanocinnolin-8-yl)pyrazin-2-yl)-1,3,4-oxadiazol-2(3H)-one]
2 | 0.0531 | CC(C)(O)CNC(=O)c1cccc([C@@]23CC[C@@H](c4cc(-c5c(F)cccc5F)nnc42)C3(C)C)n1 [Example 63, 6-((5R,8S)-3-(2,6-difluorophenyl)-9,9-dimethyl-5,6,7,8-tetrahydro-5,8-methanocinnolin-8-yl)-N-(2-hydroxy-2-methylpropyl)picolinamide]
3 | 0.0101 | CC(C)(O)c1nc(-c2cncc([C@@]34CC[C@@H](c5cc(-c6c(F)cccc6F)nnc53)C4(C)C)n2)no1 [Example 256, 2-(3-(6-((5R,8S)-3-(2,6-difluorophenyl)-9,9-dimethyl-5,6,7,8-tetrahydro-5,8-methanocinnolin-8-yl)pyrazin-2-yl)-1,2,4-oxadiazol-5-yl)propan-2-ol]
4 | 0.0016 | CC1(C)[C@H]2CC[C@]1(c1cccc(-c3cc(CO)n[nH]3)n1)c1nnc(-c3c(F)cccc3F)cc12 [Example 313, (5-(6-((5R,8S)-3-(2,6-difluorophenyl)-9,9-dimethyl-5,6,7,8-tetrahydro-5,8-methanocinnolin-8-yl)pyridin-2-yl)-1H-pyrazol-3-yl)methanol]
5 | 0.127 | Cc1nc(=O)[nH]n1-c1nccc([C@@]23CC[C@@H](c4cc(-c5c(F)cccc5F)nnc42)C3(C)C)n1 [Example 360]
6 | 0.0528 | CC1(C)[C@H]2CC[C@]1(c1ccnc(C(=O)NCCO)n1)c1nnc(-c3c(F)cccc3F)cc12 [Example 81]
7 | 0.0264 | CC1(C)[C@H]2CC[C@]1(c1cc(C(N)=O)ccn1)c1nnc(-c3c(F)cccc3F)cc12 [Example 69]
8 | 0.0216 | C[C@@H](O)c1nnc(-c2ncc(F)c([C@@]34CC[C@@H](c5cc(-c6c(F)cccc6F)nnc53)C4(C)C)n2)[nH]1 [Example 258]
9 | 0.0053 | CCC(O)(CC)c1coc(-c2cncc([C@@]34CC[C@@H](c5cc(-c6c(F)cccc6F)nnc53)C4(C)C)n2)n1 [Example 377, 3-(2-(6-((5R,8S)-3-(2,6-difluorophenyl)-9,9-dimethyl-5,6,7,8-tetrahydro-5,8-methanocinnolin-8-yl)pyrazin-2-yl)oxazol-4-yl)pentan-3-ol]
10 | 0.0364 | CC(C)(O)COc1cncc([C@@]23CC[C@@H](c4cc(-c5c(F)cccc5F)nnc42)C3(C)C)n1 [Example 316, 1-((6-((5R,8S)-3-(2,6-difluorophenyl)-9,9-dimethyl-5,6,7,8-tetrahydro-5,8-methanocinnolin-8-yl)pyrazin-2-yl)oxy)-2-methylpropan-2-ol]
11 | 0.0261 | CC(C)(O)CNS(=O)(=O)c1cccc([C@@]23CC[C@@H](c4cc(-c5c(F)cccc5F)nnc42)C3(C)C)n1 [Example 198, 6-((5R,8S)-3-(2,6-difluorophenyl)-9,9-dimethyl-5,6,7,8-tetrahydro-5,8-methanocinnolin-8-yl)-N-(2-hydroxy-2-methylpropyl)pyridine-2-sulfonamide]
12 | 0.0043 | CC1(C)[C@H]2CC[C@]1(c1cncc(-c3ccc(=O)[nH]c3)n1)c1nnc(-c3c(F)cccc3F)cc12 [Example 395, 5-(6-((5R,8S)-3-(2,6-difluorophenyl)-9,9-dimethyl-5,6,7,8-tetrahydro-5,8-methanocinnolin-8-yl)pyrazin-2-yl)pyridin-2(1H)-one]
13 | 0.0504 | CC1(C)[C@H]2CC[C@]1(c1ccnc(C3CCCN(C(=O)CO)C3)n1)c1nnc(-c3c(F)cccc3F)cc12 (stereo partly shown) [Example 364]
14 | 0.0134 | CC1(C)[C@H]2CC[C@]1(c1cccnn1)c1nnc(-c3c(F)cccc3F)cc12 [Example 2, (5R,8S)-3-(2,6-difluorophenyl)-9,9-dimethyl-8-(pyridazin-3-yl)-5,6,7,8-tetrahydro-5,8-methanocinnoline]
15 | 0.0311 | CC1(C)[C@H]2CC[C@]1(c1cncc(C(=O)NCC3(O)COC3)n1)c1nnc(-c3c(F)cccc3F)cc12 [Example 106, 6-((5R,8S)-3-(2,6-difluorophenyl)-9,9-dimethyl-5,6,7,8-tetrahydro-5,8-methanocinnolin-8-yl)-N-((3-hydroxyoxetan-3-yl)methyl)pyrazine-2-carboxamide]
16 | 0.0213 | CC1(C)[C@H]2CC[C@]1(c1cncc(-c3nc(C(O)(O)C(F)(F)F)co3)n1)c1nnc(-c3c(F)cccc3F)cc12 [Example 431, 1-(2-(6-((5R,8S)-3-(2,6-difluorophenyl)-9,9-dimethyl-5,6,7,8-tetrahydro-5,8-methanocinnolin-8-yl)pyrazin-2-yl)oxazol-4-yl)-2,2,2-trifluoroethane-1,1-diol]
17 | 0.0263 | CC1(C)[C@H]2CC[C@]1(c1cncc(-c3nnc(CO)o3)n1)c1nnc(-c3c(F)cccc3F)cc12 [Example 84, (5-(6-((5R,8S)-3-(2,6-difluorophenyl)-9,9-dimethyl-5,6,7,8-tetrahydro-5,8-methanocinnolin-8-yl)pyrazin-2-yl)-1,3,4-oxadiazol-2-yl)methanol]
18 | 0.0075 | CC1(C)[C@H]2CC[C@]1(c1ccnc(-n3ccnn3)n1)c1nnc(-c3c(F)cccc3F)cc12 [Example 188]
19 | 0.0173 | Cc1ncn(-c2ncc(F)c([C@@]34CC[C@@H](c5cc(-c6c(F)cccc6F)nnc53)C4(C)C)n2)n1 [Example 267]
